From ChEMBL document CHEMBL3526091, “Pharmacokinetics, metabolism, and excretion of the glycogen synthase kinase-3 inhibitor LY2090314 in rats, dogs, and humans: a case study in rapid clearance by extensive metabolism with low circulating metabolite exposure” (Drug Metab Dispos, 2013)

Experiments:
Assay type in all cases: ADME, organism-based
[1] = Cmax in cancer patient at 60 mg for 60 mins treated 1/8 cycle/day; parameters: dose 60 mg, dosed compound name LY2090314; settings: human, in vivo
[2] = Cmax in cancer patient at 80 mg for 60 mins treated 1/8 cycle/day; parameters: dose 80 mg, dosed compound name LY2090314; settings: human, in vivo
[3] = Tmax in cancer patient at 10 mg for 60 mins treated 1/1 cycle/day; parameters: dosed compound name LY2090314; settings: human, in vivo
[4] = Tmax in cancer patient at 20 mg for 60 mins treated 1/1 cycle/day; parameters: dosed compound name LY2090314; settings: human, in vivo
[5] = Tmax in cancer patient at 40 mg for 60 mins treated 1/1 cycle/day; parameters: dosed compound name LY2090314; settings: human, in vivo
[6] = Tmax in cancer patient at 60 mg for 60 mins treated 1/1 cycle/day; parameters: dosed compound name LY2090314; settings: human, in vivo
[7] = Tmax in cancer patient at 40 mg for 60 mins treated 1/8 cycle/day; parameters: dosed compound name LY2090314; settings: human, in vivo
[8] = Half life in cancer patient at 80 mg for 60 mins treated 1/8 cycle/day; parameters: dosed compound name LY2090314; settings: human, in vivo
[9] = Half life in cancer patient at 120 mg for 60 mins treated 1/8 cycle/day; parameters: dosed compound name LY2090314; settings: human, in vivo
[10] = Drug recovery in bile duct-cannulated Sprague-Dawley rat urine at 5 mg/kg, iv administered for 30 mins during 0 to 12 hrs time interval by radio analysis; parameters: dose 5 mg/kg, dosed compound name [14C]LY2090314, route intravenous; settings: in vivo
[11] = AUC (0 to infinity) in cancer patient at 120 mg for 60 mins treated 1/1 cycle/day; parameters: dose 120 mg, time infinity, dosed compound name LY2090314; settings: human, plasma
[12] = AUC (0 to infinity) in cancer patient at 60 mg for 60 mins treated 1/8 cycle/day; parameters: dose 60 mg, time infinity, dosed compound name LY2090314; settings: human, plasma
[13] = AUC (0 to infinity) in cancer patient at 80 mg for 60 mins treated 1/8 cycle/day; parameters: dose 80 mg, time infinity, dosed compound name LY2090314; settings: human, plasma
[14] = AUC (0 to infinity) in cancer patient at 120 mg for 60 mins treated 1/8 cycle/day; parameters: dose 120 mg, time infinity, dosed compound name LY2090314; settings: human, plasma
[15] = Clearance in cancer patient at 10 mg for 60 mins treated 1/1 cycle/day; parameters: dosed compound name LY2090314; settings: human, in vivo
[16] = Clearance in cancer patient at 20 mg for 60 mins treated 1/1 cycle/day; parameters: dosed compound name LY2090314; settings: human, in vivo
[17] = Clearance in cancer patient at 10 mg for 60 mins treated 2/1 cycle/day; parameters: dosed compound name LY2090314; settings: human, in vivo
[18] = Clearance in cancer patient at 60 mg for 60 mins treated 1/8 cycle/day; parameters: dosed compound name LY2090314; settings: human, in vivo
[19] = Clearance in cancer patient at 120 mg for 60 mins treated 1/8 cycle/day; parameters: dosed compound name LY2090314; settings: human, in vivo
[20] = Volume of distribution at steady state in cancer patient at 40 mg for 60 mins treated 1/1 cycle/day; parameters: dosed compound name LY2090314; settings: human, in vivo, read-out: Vdss
[21] = Volume of distribution at steady state in cancer patient at 60 mg for 60 mins treated 1/8 cycle/day; parameters: dosed compound name LY2090314; settings: human, in vivo, read-out: Vdss
[22] = Half life in cancer patient at 10 mg for 60 mins treated 1/1 cycle/day; parameters: dosed compound name LY2090314; settings: human, in vivo
[23] = Half life in cancer patient at 20 mg for 60 mins treated 1/1 cycle/day; parameters: dosed compound name LY2090314; settings: human, in vivo
[24] = Half life in cancer patient at 60 mg for 60 mins treated 1/1 cycle/day; parameters: dosed compound name LY2090314; settings: human, in vivo
[25] = Half life in cancer patient at 20 mg for 60 mins treated 2/1 cycle/day; parameters: dosed compound name LY2090314; settings: human, in vivo
[26] = Tmax in cancer patient at 60 mg for 60 mins treated 1/8 cycle/day; parameters: dosed compound name LY2090314; settings: human, in vivo
[27] = AUC (0 to infinity) in cancer patient at 20 mg for 60 mins treated 1/1 cycle/day; parameters: dose 20 mg, time infinity, dosed compound name LY2090314; settings: human, plasma

## O=C1NC(=O)C(c2cnc3ccccn23)=C1c1cn2c3c(cc(F)cc13)CN(C(=O)N1CCCCC1)CC2 [LY-2090314]
[1]
  Cmax: 1040 ng/mL
[2]
  Cmax: 1150 ng/mL
[3]
  Tmax: 0.95 h
[4]
  Tmax: 0.98 h
[5]
  Tmax: 0.98 h
[6]
  Tmax: 0.55 h
[7]
  Tmax: 1 h
[8]
  half-life: 2.6 h
[9]
  half-life: 3.05 h
[10]
  Radiolabel recovery: 1.82%
[11]
  AUC(0-inf): 3310 ng·h/mL
[12]
  AUC(0-inf): 1570 ng·h/mL
[13]
  AUC(0-inf): 1830 ng·h/mL
[14]
  AUC(0-inf): 2190 ng·h/mL
[15]
  clearance: 787 mL/min
[16]
  clearance: 782 mL/min
[17]
  clearance: 870 mL/min
[18]
  clearance: 633 mL/min
[19]
  clearance: 638 mL/min
[20]
  Vd: 79.3 L
[21]
  Vd: 67.5 L
[22]
  half-life: 2.24 h
[23]
  half-life: 1.84 h
[24]
  half-life: 3.15 h
[25]
  half-life: 1.92 h
[26]
  Tmax: 0.92 h
[27]
  AUC(0-inf): 427 ng·h/mL
